Consider 1 compound from patent US10799521B2, “Use of icaritin in preparing medicament for preventing or treating hematocytopenia” (Lunan Pharmaceutical Group Corporation, priority 2013, dated 2020).

The assay concerns tumor-bearing mice (mice ascites tumor s180 cells). As to the kind of experiment: Effect on chemotherapy-induced bone marrow suppression in tumor-bearing mice (routine blood test). It is filed as in vivo, Kunming mice. The conditions noted are these: after 10 days once daily, docetaxel 75 mg/m^2/d iv, Tegafur/Gimeracil/Oteracil capsules 222.2 mg/m^2/d intragastric, icaritin 10 mg/kg/d iv. As for the experimental part:
Mice ascites tumor s180 cells were conventionally incubated in 1640 culture medium, at 37° C., 5% CO2, and passaged once every two days in average. The cells in the logarithmic growth phase were prepared into a single-cell suspension having a density of 3.0×10^7 cells/ml with normal saline, which was injected into the abdominal cavities of mice under sterile conditions. Seven days after inoculation, significant swelling of the abdominal cavities of mice can be seen. As this time, the mice were executed by cervical vertebra luxation, put into a beaker containing 75% ethanol and soaked for 2-3 minutes. The sterilized mice were placed into an ultraclean bench, and the abdomens were exposed. The ascites was drawn with a sterile syringe and put into a sterile reagent bottle for further use. The above ascites was counted with trypan blue, diluted with normal saline to adjust to 2.0×10^7 cells/ml, and inoculated at the right armpit of the mice with 0.2 ml for each mouse. The inoculated mice were randomly divided into 6 groups, with 10 animals in each group and half male and half female. Group 1, the model control group: the test animals were intraperitoneally injected with0.9% normal saline (same for the following experiments); Group 2, the docetaxel group: 75 mg/m^2/d of docetaxel; Group 3, the Tegafur, Gimeracil and Oteracil Potassium Capsules group: 222.2 mg/m^2/d of Tegafur, Gimeracil and Oteracil Potassium Capsules; Group 4, the icaritin group: 10 mg/kg/d of the icaritin microemulsion formulation; Group 5, the D+I group (docetaxel+icaritin group): 75 mg/m^2/d of docetaxel+[…] of icaritin; Group 6, the T +I group (Tegafur, Gimeracil and Oteracil Potassium Capsules+icaritin group): 222.2 mg/m^2/d of Tegafur, Gimeracil and Oteracil Potassium Capsules+10 mg/kg/d of icaritin. Docetaxel and icaritin were administered by tail intravenous injection with an administration volume of 10 ml/kg for each. Tegafur, Gimeracil and Oteracil Potassium Capsules was intragastrically administered with an administration volume of 40 ml/kg. Each group was administered once a day for totally 10 days. During the test, the animals were observed every day for their food and water uptake, survival conditions and behaviors, and measured for their body weights every day. After the test was ended, the mice were anaesthetized and anatomized. Blood was collected from abdominal aorta for routine blood test, and the total number of white blood cells, the total number of platelets and the total number of neutrophils were determined.

Consider `COc1ccc(-c2oc3c(CC=C(C)C)c(O)cc(O)c3c(=O)c2O)cc1` [Icaritin], for which the Neutrophils is recorded as 1.316 ± 0.15^#**^$$ 10^9/L, the Platelets is 687.4 ± 37.2^## 10^9/L and the White blood cells is listed as 3.530 ± 0.31^##**^$$ 10^9/L.
